14 compounds from patent publication US20230234943A1, “TREX1 INHIBITORS AND USES THEREOF” (Tempest Therapeutics, Inc., priority 2020, published 2023) can be followed below.

The target in the experiment is T1, Human TREX1 enzyme (amino acids 1-242) (Homo sapiens, UniProt Q9NSU2).
T1 construct: Human TREX1 enzyme (amino acids 1-242)
T1 sequence (Q9NSU2 1-242): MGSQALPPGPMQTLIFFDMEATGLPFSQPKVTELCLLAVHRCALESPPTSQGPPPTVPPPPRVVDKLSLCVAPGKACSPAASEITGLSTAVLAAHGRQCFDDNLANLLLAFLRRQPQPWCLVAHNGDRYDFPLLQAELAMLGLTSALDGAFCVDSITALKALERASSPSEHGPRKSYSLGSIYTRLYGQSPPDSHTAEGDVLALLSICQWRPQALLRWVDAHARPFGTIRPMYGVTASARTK
Put plainly: Human TREX1 enzymatic assay with dsDNA native oligonucleotide (Picogreen fluorescence). Type of experiment: biochemical. Conditions: 2 mM dithiothreitol in assay buffer; 50 nM dsDNA oligonucleotide; 30 min preincubation at 25° C.; read-out: TREX1/Human + DTT IC50 AVG. In a few lines: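 Remaining dsDNA quantified by Picogreen fluorescence after EDTA quench, with no-enzyme and DMSO wells as controls. Reactions used 50 nM annealed oligonucleotide for 5–15 min at 25 °C, after a 30 min compound–enzyme preincubation (0.8–0.16 nM TREX1; 2% DMSO; pH 7.7 Tris, 5 mM MgCl2).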

The structures appear in SMILES notation.

With `CNS(=O)(=O)c1ccc2nc(-c3cc(OC)c(O)c(O)c3F)n(C3(C)COC3)c2c1` [Example 325, 2-(2-fluoro-3,4-dihydroxy-5-methoxyphenyl)-N-methyl-1-(3-methyloxetan-3-yl)-1H-benzo[d]imidazole-6-sulfonamide], the IC50 was 10 to 100 µM.

On to `COc1cc(-c2nc3ccccc3n2C2(C)COC2)c(C(F)(F)F)c(O)c1O` [Example 315, 6-methoxy-4-(1-(3-methyloxetan-3-yl)-1H-benzo[d]imidazol-2-yl)-3-(trifluoromethyl)benzene-1,2-diol], for which the IC50 lay in the range of 10 to 100 µM.

Turning to `COc1cc(-c2nc3cc(NC(C)=O)ccc3n2C2CCC2)c(F)c(O)c1O` [Example 313, N-(1-cyclobutyl-2-(2-fluoro-3,4-dihydroxy-5-methoxyphenyl)-1H-benzo[d]imidazol-5-yl)acetamide], the IC50 lay within 0.1 to 1 µM.

Consider `COc1ccccc1C(=O)N1CCN(c2ccc3[nH]c(-c4cc(O)c(O)c(OC)c4)nc3c2)CC1` [Example 86, (4-(2-(3,4-dihydroxy-5-methoxyphenyl)-1H-benzo[d]imidazol-5-yl)piperazin-1-yl)(2-methoxyphenyl)methanone], for which the IC50 fell in the range of 1 to 10 µM.

In the case of `COc1cc(-c2nc3cc(N4CCN(S(C)(=O)=O)CC4)ccc3[nH]2)cc(O)c1O` [Example 50, 3-methoxy-5-(5-(4-(methylsulfonyl)piperazin-1-yl)-1H-benzo[d]imidazol-2-yl)benzene-1,2-diol], the IC50 was 1 to 10 µM.

Regarding `COc1cc(-c2nc3cc(NCCO)ccc3[nH]2)cc(O)c1O` [Example 319, 5-(5-((2-hydroxyethyl)amino)-1H-benzo[d]imidazol-2-yl)-3-methoxybenzene-1,2-diol], the IC50 was in the range of 1 to 10 µM.

Regarding `COc1cc(-c2nc3cc(Cl)c(Cl)cc3n2C2(C)COC2)cc(O)c1O` [Example 302, 5-(5,6-dichloro-1-(3-methyloxetan-3-yl)-1H-benzo[d]imidazol-2-yl)-3-methoxybenzene-1,2-diol], the IC50 lay in the range of 0.1 to 1 µM.

Consider `COc1cc(-c2nc3cc(N4CCN(C(=O)c5cccc(-c6ccccc6)c5)CC4)ccc3[nH]2)cc(O)c1O` [Example 113, [1,1′-biphenyl]-3-yl(4-(2-(3,4-dihydroxy-5-methoxyphenyl)-1H-benzo[d]imidazol-5-yl)piperazin-1-yl)methanone], for which the IC50 is more than 100 µM.

Take `COc1cc(-c2nc3cc(N4CC(NS(C)(=O)=O)C4)ccc3[nH]2)cc(O)c1O` [Example 146, N-(1-(2-(3,4-dihydroxy-5-methoxyphenyl)-1H-benzo[d]imidazol-5-yl)azetidin-3-yl)methanesulfonamide]: the IC50 was 1 to 10 µM.

As for `COc1cc(-c2nc3ccc(S(=O)(=O)Nc4ccccc4)cc3n2C2COC2)cc(O)c1O` [Example 39, 2-(3,4-dihydroxy-5-methoxyphenyl)-1-(oxetan-3-yl)-N-phenyl-1H-benzo[d]imidazole-6-sulfonamide], the IC50 is 10 to 100 µM.

Consider `COc1cc(-c2nc3cc(N4CCN(C(=O)c5cccc(C(=O)O)c5)CC4)ccc3[nH]2)cc(O)c1O` [Example 101, 3-(4-(2-(3,4-dihydroxy-5-methoxyphenyl)-1H-benzo[d]imidazol-5-yl)piperazine-1-carbonyl)benzoic acid], for which the IC50 was 10 to 100 µM.

As to `O=C(O)c1cc(F)c(-c2nc3cc(N4CCC4)ccc3[nH]2)cc1O` [Example 150, 4-(5-(azetidin-1-yl)-1H-benzo[d]imidazol-2-yl)-5-fluoro-2-hydroxybenzoic acid], the IC50 is 1 to 10 µM.

Turning to `COc1cc(-c2nc3cc(N4CCN(Cc5ccccc5)CC4)ccc3[nH]2)cc(O)c1O` [Example 59, 5-(5-(4-benzylpiperazin-1-yl)-1H-benzo[d]imidazol-2-yl)-3-methoxybenzene-1,2-diol], the IC50 lay within 10 to 100 µM.

On to `CCNC(=O)c1ccc2nc(-c3cc(OC)c(O)c(O)c3F)n(C34CC(C3)C4)c2c1` [Example 264, 1-(bicyclo[1.1.1]pentan-1-yl)-N-ethyl-2-(2-fluoro-3,4-dihydroxy-5-methoxyphenyl)-1H-benzo[d]imidazole-6-carboxamide], for which the IC50 was not above 0.1 µM.
